# Patent publication US6620828B2, “Thiazole compounds and pharmaceutical compositions for inhibiting protein kinases and methods for their use” (Agouron Pharmaceuticals, Inc., priority 1999, dated 2003)
# pIC50: −log10 of the molar value. Like-named read-outs stand apart in the source and are kept apart here.
# Test system: human umbilical vein endothelial cells (HUVEC)
# Assay: HUVEC proliferation assay
# Assay type: cell-based
# Details: for % inhibition @ 150 nM / inhibition at 0.15 µM: Table I screening results, crude combinatorial amide library, 150 nM; for inhibition at 0.001 µM: 1 nM; for inhibition at 0.01 µM: 10 nM; for inhibition at 0.05 µM: 50 nM
# How it was run: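 Readout was MTT dye reduction (A595) after 72 h of stimulation with VEGF at 6 ng/ml final. Compound, in 0.1% DMSO final, was added 1 h before VEGF to HUVEC starved 24 h in 1% FBS. % inhibition was scaled between VEGF-alone and unstimulated wells; IC50 was fitted from triplicate dose curves.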
# [1] = Homo sapiens, HUVEC, table following Table II (untitled), crude combinatorial library
# [2] = Homo sapiens, HUVEC, table following Table II (untitled), crude combinatorial library, read-out: % inhibition @ 10 nM
# [3] = Homo sapiens, HUVEC, Inhibition of HUVEC Proliferation, crude combinatorial urea library, read-out: % inhibition @ 50 nM
# [4] = Homo sapiens, HUVEC, Inhibition of HUVEC Proliferation, crude combinatorial urea library, read-out: Inhibition @ 50 nM
smiles,measurement,setting,value
COc1cc(Nc2nc(N)c(-c3nc(-c4cccc(NC(=O)C5CCN(C(C)=O)CC5)c4)cs3)s2)cc(OC)c1OC,% inhibition @ 150 nM,,0%
COc1cc(Nc2nc(N)c(-c3nc(-c4cccc(NC(=O)/C=C/c5cccc6ccccc56)c4)cs3)s2)cc(OC)c1OC,% inhibition @ 150 nM,,0%
COc1cc(Nc2nc(N)c(-c3nc(-c4cccc(NC(=O)C(C5CCCCC5)C5CCCCC5)c4)cs3)s2)cc(OC)c1OC,% inhibition @ 150 nM,,0%
COc1cc(Nc2nc(N)c(-c3nc(-c4cccc(NC(=O)CCc5cccnc5)c4)cs3)s2)cc(OC)c1OC,% inhibition @ 150 nM,,0%
COc1cc(/C=C/C(=O)Nc2cccc(-c3csc(-c4sc(Nc5cc(OC)c(OC)c(OC)c5)nc4N)n3)c2)cc(OC)c1OC,% inhibition @ 150 nM,,0%
COc1ccc(/C=C/C(=O)Nc2cccc(-c3csc(-c4sc(Nc5cc(OC)c(OC)c(OC)c5)nc4N)n3)c2)cc1OC,% inhibition @ 150 nM,,0%
C=CCC(C)C(=O)Nc1cccc(-c2csc(-c3sc(Nc4cc(OC)c(OC)c(OC)c4)nc3N)n2)c1 (stereo not shown),% inhibition @ 150 nM,,0%
[CH2-][N+](=O)c1cccc(/C=C/C(=O)Nc2cccc(-c3csc(-c4sc(Nc5cc(OC)c(OC)c(OC)c5)nc4N)n3)c2)c1,% inhibition @ 150 nM,,0%
COc1cc(Nc2nc(N)c(-c3nc(-c4cccc(NC(=O)/C=C/c5cccc(Cl)c5)c4)cs3)s2)cc(OC)c1OC,% inhibition @ 150 nM,,0%
COc1cc(Nc2nc(N)c(-c3nc(-c4cccc(NC(=O)/C=C/c5ccco5)c4)cs3)s2)cc(OC)c1OC,% inhibition @ 150 nM,,0%
COc1cc(Nc2nc(N)c(-c3nc(-c4cccc(NC(=O)/C=C/c5ccoc5)c4)cs3)s2)cc(OC)c1OC,% inhibition @ 150 nM,,0%
COc1cc(Nc2nc(N)c(-c3nc(-c4cccc(NC(=O)/C=C/c5ccccc5F)c4)cs3)s2)cc(OC)c1OC,% inhibition @ 150 nM,,0%
COc1cc(Nc2nc(N)c(-c3nc(-c4cccc(NC(=O)/C=C/c5ccc(F)cc5)c4)cs3)s2)cc(OC)c1OC,% inhibition @ 150 nM,,0%
COc1cc(Nc2nc(N)c(-c3nc(-c4cccc(NC(=O)C(=O)c5c[nH]c6ccccc56)c4)cs3)s2)cc(OC)c1OC,% inhibition @ 150 nM,,0%
COc1ccc(C(=O)Nc2cccc(-c3csc(-c4sc(Nc5cc(OC)c(OC)c(OC)c5)nc4N)n3)c2)cc1Cl,% inhibition @ 150 nM,,0%
COc1cc(Nc2nc(N)c(-c3nc(-c4cccc(NC(=O)Cc5ccccc5C)c4)cs3)s2)cc(OC)c1OC,% inhibition @ 150 nM,,0%
COc1cc(Nc2nc(N)c(-c3nc(-c4cccc(NC(=O)/C=C/c5cccc(F)c5)c4)cs3)s2)cc(OC)c1OC,% inhibition @ 150 nM,,0%
COc1ccccc1CCC(=O)Nc1cccc(-c2csc(-c3sc(Nc4cc(OC)c(OC)c(OC)c4)nc3N)n2)c1,% inhibition @ 150 nM,,0%
COc1cc(CCC(=O)Nc2cccc(-c3csc(-c4sc(Nc5cc(OC)c(OC)c(OC)c5)nc4N)n3)c2)cc(OC)c1OC,% inhibition @ 150 nM,,0%
COc1cc(Nc2nc(N)c(-c3nc(-c4cccc(NC(=O)CCc5ccccc5Cl)c4)cs3)s2)cc(OC)c1OC,% inhibition @ 150 nM,,0%
COc1cc(Nc2nc(N)c(-c3nc(-c4cccc(NC(=O)/C=C/c5ccc6c(c5)OCO6)c4)cs3)s2)cc(OC)c1OC,% inhibition @ 150 nM,,0%
COc1cc(Nc2nc(N)c(-c3nc(-c4cccc(NC(=O)C(C)c5ccc(CC(C)C)cc5)c4)cs3)s2)cc(OC)c1OC (stereo not shown),% inhibition @ 150 nM,,0%
COc1ccc(CC(=O)Nc2cccc(-c3csc(-c4sc(Nc5cc(OC)c(OC)c(OC)c5)nc4N)n3)c2)cc1,% inhibition @ 150 nM,,0%
COc1cc(Nc2nc(N)c(-c3nc(-c4cccc(NC(=O)Cn5cnc6c5c(=O)n(C)c(=O)n6C)c4)cs3)s2)cc(OC)c1OC,% inhibition @ 150 nM,,0%
COc1cc(Nc2nc(N)c(-c3nc(-c4cc(NC(=O)Cc5c(F)cccc5F)ccc4C)no3)s2)cc(OC)c1OC,inhibition at 0.001 µM,[1],-23%
same,inhibition at 0.01 µM,[2],42%
COc1cc(Nc2nc(N)c(-c3nc(-c4cc(NC(=O)C5C(C)(C)C5(C)C)ccc4C)no3)s2)cc(OC)c1OC,inhibition at 0.001 µM,[1],-31%
same,inhibition at 0.01 µM,[2],32%
CCNc1ccccc1C(=O)Nc1ccc(C)c(-c2noc(-c3sc(Nc4cc(OC)c(OC)c(OC)c4)nc3N)n2)c1,inhibition at 0.001 µM,[1],-21%
same,inhibition at 0.01 µM,[2],18%
COc1cc(Nc2nc(N)c(-c3nc(-c4cc(NC(=O)[C@H]5CCCN5C(C)=O)ccc4C)no3)s2)cc(OC)c1OC,inhibition at 0.001 µM,[1],-44%
same,inhibition at 0.01 µM,[2],-3%
"COc1cccc(C(=O)Nc2cc(-c3csc(-c4sc(NC(=O)NCc5ccccc5)nc4N)n3)c(F)cc2F)c1 [O(13), N-{5-[4′-Amino-2′-(3-benzyl-ureido)-[2,5′]bithiazolyl-4-yl]-2,4-difluoro-phenyl}-3-methoxy-benzamide]",pIC50,"Homo sapiens, HUVEC, Table 3",6.85
CNC(=O)Nc1nc(N)c(-c2nc(-c3cccc(NC(=O)c4cccc(OC)c4)c3)cs2)s1 [drawing 606],inhibition at 0.01 µM,"Homo sapiens, HUVEC, crude combinatorial urea library, read-out: Inhibition of HUVEC Proliferation % inhibition @ 10 nM",15%
same,inhibition at 0.05 µM,"Homo sapiens, HUVEC, crude combinatorial urea library, read-out: Inhibition of HUVEC Proliferation % inhibition @ 50 nM",115%
COc1cccc(C(=O)Nc2cc(-c3csc(-c4sc(NC(=O)NCCCN5CCCC5=O)nc4N)n3)c(F)cc2F)c1 [drawing 675],inhibition at 0.05 µM,[3],105%
COc1cccc(C(=O)Nc2cc(-c3csc(-c4sc(NC(=O)NCc5ccccc5)nc4N)n3)c(F)cc2F)c1 [drawing 678],inhibition at 0.05 µM,[3],93%
COc1cccc(C(=O)Nc2cc(-c3csc(-c4sc(NC(=O)NCCOCCO)nc4N)n3)c(F)cc2F)c1 [drawing 699],inhibition at 0.05 µM,[3],98%
COc1cccc(C(=O)Nc2cc(-c3csc(-c4sc(NC(=O)NCCN5CCOCC5)nc4N)n3)c(F)cc2F)c1 [drawing 700],inhibition at 0.05 µM,[3],96%
COc1cccc(C(=O)Nc2cc(-c3csc(-c4sc(NC(=O)NCCN5CCCC5)nc4N)n3)c(F)cc2F)c1 [drawing 703],inhibition at 0.05 µM,[3],93%
COCC(C)NC(=O)Nc1nc(N)c(-c2nc(-c3cc(NC(=O)c4cccc(OC)c4)c(F)cc3F)cs2)s1 (stereo not shown) [drawing 704],inhibition at 0.05 µM,[3],93%
COc1cccc(C(=O)Nc2cc(-c3csc(-c4sc(NC(=O)NCc5ccccn5)nc4N)n3)c(F)cc2F)c1 [drawing 705],inhibition at 0.05 µM,[3],118%
COc1cccc(C(=O)Nc2cc(-c3csc(-c4sc(NC(=O)NCCc5ccncc5)nc4N)n3)c(F)cc2F)c1 [drawing 753],inhibition at 0.05 µM,[3],98%
COc1cccc(C(=O)Nc2cc(-c3noc(-c4sc(NC(=O)NCC5CCCO5)nc4N)n3)c(F)cc2F)c1 (stereo not shown) [drawing 762],inhibition at 0.05 µM,[4],107%
COc1cccc(C(=O)Nc2cc(-c3noc(-c4sc(NC(=O)NCCCN5CCCC5=O)nc4N)n3)c(F)cc2F)c1 [drawing 763],inhibition at 0.05 µM,[4],106%
COc1cccc(C(=O)Nc2cc(-c3noc(-c4sc(NC(=O)N[C@H]5CC[C@H](O)CC5)nc4N)n3)c(F)cc2F)c1 [drawing 770],inhibition at 0.05 µM,[4],92%
CNC(=O)Nc1nc(N)c(-c2nc(-c3cc(NC(=O)c4cccc(OC)c4)c(F)cc3F)no2)s1 [drawing 782],inhibition at 0.05 µM,[4],105%
COc1cccc(C(=O)Nc2cc(-c3noc(-c4sc(NC(=O)NCCOCCO)nc4N)n3)c(F)cc2F)c1 [drawing 787],inhibition at 0.05 µM,[4],98%
COc1cccc(C(=O)Nc2cc(-c3noc(-c4sc(NC(=O)NCCN5CCOCC5)nc4N)n3)c(F)cc2F)c1 [drawing 788],inhibition at 0.05 µM,[4],106%
COc1cccc(C(=O)Nc2cc(-c3noc(-c4sc(NC(=O)NCC(N)=O)nc4N)n3)c(F)cc2F)c1 [drawing 803],inhibition at 0.05 µM,[4],30%
COc1cccc(C(=O)Nc2cc(-c3noc(-c4sc(NC(=O)NCC(C)C)nc4N)n3)c(F)cc2F)c1 [drawing 804],inhibition at 0.05 µM,[4],20%
COc1cccc(C(=O)Nc2cc(-c3noc(-c4sc(NC(=O)NCCO)nc4N)n3)c(F)cc2F)c1 [drawing 806],inhibition at 0.05 µM,[4],19%
COc1cc(Nc2nc(N)c(-c3nc(-c4cccc(NC(=O)c5cc6ccccc6o5)c4)cs3)s2)cc(OC)c1OC [drawing 844],inhibition at 0.15 µM,"Homo sapiens, HUVEC",40%
COc1cc(Nc2nc(N)c(-c3nc(-c4cccc(NC(=O)c5ccccc5)c4)cs3)s2)cc(OC)c1OC [drawing 845],inhibition at 0.15 µM,"Homo sapiens, HUVEC",33%
COc1cc(Nc2nc(N)c(-c3nc(-c4cccc(NC(=O)COc5ccccc5)c4)cs3)s2)cc(OC)c1OC [drawing 868],inhibition at 0.15 µM,"Homo sapiens, HUVEC",10%
COc1cc(Nc2nc(N)c(-c3nc(-c4cccc(NC(=O)CCc5ccccc5)c4)cs3)s2)cc(OC)c1OC [drawing 884],inhibition at 0.15 µM,"Homo sapiens, HUVEC",4%
COc1cc(Nc2nc(N)c(-c3nc(-c4cccc(NC(=O)c5sc(C)nc5C)c4)cs3)s2)cc(OC)c1OC [drawing 894],inhibition at 0.15 µM,"Homo sapiens, HUVEC",19%
COc1cc(Nc2nc(N)c(-c3nc(-c4cccc(NC(=O)c5cnc6ccccc6c5)c4)cs3)s2)cc(OC)c1OC [drawing 896],inhibition at 0.15 µM,"Homo sapiens, HUVEC",42%
COc1cc(Nc2nc(N)c(-c3nc(-c4cccc(NC(=O)c5ncoc5-c5ccccc5)c4)cs3)s2)cc(OC)c1OC [drawing 897],inhibition at 0.15 µM,"Homo sapiens, HUVEC",64%
COc1cc(Nc2nc(N)c(-c3nc(-c4cccc(NC(=O)c5ccc(C)s5)c4)cs3)s2)cc(OC)c1OC [drawing 916],inhibition at 0.15 µM,"Homo sapiens, HUVEC",32%
COc1cc(Nc2nc(N)c(-c3nc(-c4cccc(NC(=O)c5ccc(Br)o5)c4)cs3)s2)cc(OC)c1OC [drawing 929],inhibition at 0.15 µM,"Homo sapiens, HUVEC",34%
COc1cc(Nc2nc(N)c(-c3nc(-c4cccc(NC(=O)c5ccc(C(C)C)cc5)c4)cs3)s2)cc(OC)c1OC [drawing 943],% inhibition @ 150 nM,0.15 µM,6%
COc1cccc(C(=O)Nc2cccc(-c3csc(-c4sc(Nc5cc(OC)c(OC)c(OC)c5)nc4N)n3)c2)c1 [drawing 999],inhibition at 0.15 µM,"Homo sapiens, HUVEC",108%
COc1cc(Nc2nc(N)c(-c3nc(-c4cccc(NC(=O)c5ccc(C(C)C)cc5)c4)cs3)s2)cc(OC)c1OC [drawing 1003],% inhibition @ 150 nM,0.15 µM,17%
